Test results from ChEMBL document CHEMBL1201862, “PubChem BioAssay data set” (2004).
The source made the active and inactive calls.

Columns and labels:
[1] = viability loss in Vero cells – cytotoxicity control for Vif-APOBEC3G degradation inhibitor project, dose response (AID 1117358); format: functional; settings: Vero
[2] = target: T1, High affinity choline transporter 1 (Homo sapiens, UniProt Q9GZV3); test: human choline transporter blockers, potency – cell-based, 5-point CRC, membrane potential dye, dose response (AID 504840); format: functional
T1 sequence (Q9GZV3 whole entry): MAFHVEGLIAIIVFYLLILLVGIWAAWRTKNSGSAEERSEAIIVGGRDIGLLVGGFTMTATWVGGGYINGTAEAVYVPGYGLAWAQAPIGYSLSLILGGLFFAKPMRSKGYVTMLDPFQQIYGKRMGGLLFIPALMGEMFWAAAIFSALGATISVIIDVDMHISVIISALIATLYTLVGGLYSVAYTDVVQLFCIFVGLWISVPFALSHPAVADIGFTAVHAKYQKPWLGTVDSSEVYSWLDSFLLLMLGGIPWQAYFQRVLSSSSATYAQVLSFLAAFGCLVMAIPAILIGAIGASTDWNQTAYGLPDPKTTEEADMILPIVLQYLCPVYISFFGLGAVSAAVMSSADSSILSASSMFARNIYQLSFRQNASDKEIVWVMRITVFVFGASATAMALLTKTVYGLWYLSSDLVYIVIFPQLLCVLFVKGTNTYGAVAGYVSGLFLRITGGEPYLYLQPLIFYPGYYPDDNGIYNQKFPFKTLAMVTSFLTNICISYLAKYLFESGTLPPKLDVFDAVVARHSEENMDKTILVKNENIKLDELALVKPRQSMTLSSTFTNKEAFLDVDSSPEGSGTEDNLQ

[3] = target: T2, Short transient receptor potential channel 4 (Mus musculus, UniProt Q9QUQ5); test: calcium entry via TRPC4 opening agents – cell-based, HEK293 TRPC4/mu-opioid, Fluo-4 calcium, dose response (AID 434937); format: functional
T2 sequence (Q9QUQ5 whole entry): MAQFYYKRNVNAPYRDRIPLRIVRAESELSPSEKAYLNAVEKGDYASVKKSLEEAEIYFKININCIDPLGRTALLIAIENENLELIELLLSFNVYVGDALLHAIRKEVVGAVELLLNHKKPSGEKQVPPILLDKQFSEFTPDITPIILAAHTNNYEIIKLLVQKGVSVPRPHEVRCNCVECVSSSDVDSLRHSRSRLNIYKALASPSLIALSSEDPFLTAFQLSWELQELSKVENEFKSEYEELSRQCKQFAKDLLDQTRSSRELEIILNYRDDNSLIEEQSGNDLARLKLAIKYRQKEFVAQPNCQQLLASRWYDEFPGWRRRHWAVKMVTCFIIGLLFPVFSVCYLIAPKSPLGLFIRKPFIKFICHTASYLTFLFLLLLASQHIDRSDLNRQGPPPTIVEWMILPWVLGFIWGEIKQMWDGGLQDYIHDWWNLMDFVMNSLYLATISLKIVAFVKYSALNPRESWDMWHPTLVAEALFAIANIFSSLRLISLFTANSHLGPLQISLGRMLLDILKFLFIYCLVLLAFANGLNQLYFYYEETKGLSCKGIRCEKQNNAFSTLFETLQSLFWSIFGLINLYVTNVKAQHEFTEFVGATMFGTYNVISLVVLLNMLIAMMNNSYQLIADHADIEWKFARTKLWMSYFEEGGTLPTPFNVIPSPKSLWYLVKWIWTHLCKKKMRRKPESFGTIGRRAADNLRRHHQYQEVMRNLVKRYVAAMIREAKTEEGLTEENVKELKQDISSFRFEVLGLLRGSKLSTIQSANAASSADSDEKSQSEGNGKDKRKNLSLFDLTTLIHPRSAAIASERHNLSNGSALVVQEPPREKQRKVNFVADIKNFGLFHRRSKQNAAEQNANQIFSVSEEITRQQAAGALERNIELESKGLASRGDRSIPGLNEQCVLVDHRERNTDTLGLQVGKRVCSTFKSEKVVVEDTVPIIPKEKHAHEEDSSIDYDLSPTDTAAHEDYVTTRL

[4] = target: T3, Heat shock factor protein 1 (Mus musculus, UniProt P38532); test: enhancement of HSF1-driven luciferase signal – cell-based, NIH3T3, luminescence, dose retest, confirmation (AID 435004); format: functional;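 also: stress induced by proteasome inhibitor MG132 added 30 min after compound; luciferase reporter driven by HSF1 response element in NIH3T3 cells; actives raise luminescence as potentiators of the MG132 stress response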
T3 sequence (P38532 whole entry): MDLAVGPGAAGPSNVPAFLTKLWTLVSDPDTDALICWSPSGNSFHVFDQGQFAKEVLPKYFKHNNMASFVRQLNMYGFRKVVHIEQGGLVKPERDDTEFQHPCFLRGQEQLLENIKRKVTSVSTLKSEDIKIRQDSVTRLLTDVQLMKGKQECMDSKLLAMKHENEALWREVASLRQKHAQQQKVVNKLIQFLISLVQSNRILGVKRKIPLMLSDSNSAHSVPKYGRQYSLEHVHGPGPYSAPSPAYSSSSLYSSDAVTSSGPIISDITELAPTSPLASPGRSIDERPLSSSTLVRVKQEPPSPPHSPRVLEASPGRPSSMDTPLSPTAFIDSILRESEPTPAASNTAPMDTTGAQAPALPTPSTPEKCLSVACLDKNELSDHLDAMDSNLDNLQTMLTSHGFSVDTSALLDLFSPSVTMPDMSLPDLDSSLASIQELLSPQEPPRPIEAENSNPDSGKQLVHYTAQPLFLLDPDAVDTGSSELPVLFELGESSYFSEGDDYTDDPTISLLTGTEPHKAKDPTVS

[5] = viability of uninfected HEp-2 cells – cell-based, HTS, cytotoxicity control for RSV inhibitor project, dose response (AID 2410); format: functional; settings: human respiratory syncytial virus
Beta-galactosidase = Beta-galactosidase (Escherichia coli, UniProt Q8VNN2); test: PubChem AID 485352; format: functional
Sequence of Beta-galactosidase (Q8VNN2 whole entry): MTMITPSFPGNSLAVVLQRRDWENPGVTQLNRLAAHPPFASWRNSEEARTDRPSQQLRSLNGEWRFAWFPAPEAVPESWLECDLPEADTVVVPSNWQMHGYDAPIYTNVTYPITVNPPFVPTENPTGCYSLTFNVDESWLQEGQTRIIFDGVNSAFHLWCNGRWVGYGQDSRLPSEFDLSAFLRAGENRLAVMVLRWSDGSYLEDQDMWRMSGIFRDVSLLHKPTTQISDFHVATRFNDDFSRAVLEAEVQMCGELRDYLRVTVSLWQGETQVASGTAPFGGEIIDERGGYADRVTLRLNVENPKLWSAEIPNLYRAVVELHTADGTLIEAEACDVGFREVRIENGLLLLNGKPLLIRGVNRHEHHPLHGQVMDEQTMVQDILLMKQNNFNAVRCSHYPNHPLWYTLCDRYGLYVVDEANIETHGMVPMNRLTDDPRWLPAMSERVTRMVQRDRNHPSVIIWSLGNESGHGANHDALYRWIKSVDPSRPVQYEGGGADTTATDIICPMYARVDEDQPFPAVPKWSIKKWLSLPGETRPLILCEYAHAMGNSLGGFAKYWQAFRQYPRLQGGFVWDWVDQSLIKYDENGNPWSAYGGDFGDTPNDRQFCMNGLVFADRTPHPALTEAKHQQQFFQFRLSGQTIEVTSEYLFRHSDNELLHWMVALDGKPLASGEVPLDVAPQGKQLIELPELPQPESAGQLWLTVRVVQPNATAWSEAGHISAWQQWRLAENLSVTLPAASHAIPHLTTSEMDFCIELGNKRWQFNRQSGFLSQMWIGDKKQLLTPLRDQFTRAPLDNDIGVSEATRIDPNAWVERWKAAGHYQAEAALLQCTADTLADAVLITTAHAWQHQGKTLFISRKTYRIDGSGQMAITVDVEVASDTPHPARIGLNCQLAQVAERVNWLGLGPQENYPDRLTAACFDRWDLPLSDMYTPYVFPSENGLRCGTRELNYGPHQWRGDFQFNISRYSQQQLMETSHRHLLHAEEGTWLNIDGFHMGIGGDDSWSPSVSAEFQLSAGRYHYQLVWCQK

[6] = target: T4, Type-1 angiotensin II receptor (Homo sapiens, UniProt P30556); test: antagonism of angiotensin II type 1 receptor – cell-based, uHTS hits, selectivity assay for APJ receptor antagonist project, dose response (AID 463214); format: functional;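 also: antagonist potency against angiotensin II stimulated AT1 response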
T4 sequence (P30556 whole entry): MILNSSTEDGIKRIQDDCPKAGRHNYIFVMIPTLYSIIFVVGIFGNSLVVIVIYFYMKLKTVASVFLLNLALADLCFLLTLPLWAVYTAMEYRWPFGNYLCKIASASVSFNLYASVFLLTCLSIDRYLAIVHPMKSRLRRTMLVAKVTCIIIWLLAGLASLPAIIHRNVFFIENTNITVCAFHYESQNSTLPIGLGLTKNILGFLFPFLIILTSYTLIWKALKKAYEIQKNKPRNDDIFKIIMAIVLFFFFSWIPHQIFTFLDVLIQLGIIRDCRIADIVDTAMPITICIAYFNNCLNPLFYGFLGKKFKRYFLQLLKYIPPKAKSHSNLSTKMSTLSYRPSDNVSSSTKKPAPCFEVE

cells = format: functional
[7] = test system: Streptococcus sp. 'group A'; test: Streptococcus pyogenes SK(-)GAS viability under kanamycin – luminescence, BacTiterGlo, confirmation, counter-screen for streptokinase expression inhibitor project, dose response (AID 1900); format: functional, organism-based
Streptococcus = test: GAS UMAA2166 growth inhibition – luminescence, BacTiterGlo, counter-screen for streptokinase expression inhibitor project, dose response (AID 1915); format: functional, organism-based;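 also: potency for reduction of bacterial viability or growth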
Streptokinase A = target: T5, Streptokinase A (Streptococcus pyogenes serotype M1, UniProt P10520); test: viability-normalized secreted streptokinase activity reduction – plasminogen activation absorbance, OD405, dose response (AID 1914); format: functional, Streptococcus pyogenes M1 GAS;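 also: secreted streptokinase activity via plasminogen activation per viability signal from cell pellet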
T5 sequence (P10520 whole entry): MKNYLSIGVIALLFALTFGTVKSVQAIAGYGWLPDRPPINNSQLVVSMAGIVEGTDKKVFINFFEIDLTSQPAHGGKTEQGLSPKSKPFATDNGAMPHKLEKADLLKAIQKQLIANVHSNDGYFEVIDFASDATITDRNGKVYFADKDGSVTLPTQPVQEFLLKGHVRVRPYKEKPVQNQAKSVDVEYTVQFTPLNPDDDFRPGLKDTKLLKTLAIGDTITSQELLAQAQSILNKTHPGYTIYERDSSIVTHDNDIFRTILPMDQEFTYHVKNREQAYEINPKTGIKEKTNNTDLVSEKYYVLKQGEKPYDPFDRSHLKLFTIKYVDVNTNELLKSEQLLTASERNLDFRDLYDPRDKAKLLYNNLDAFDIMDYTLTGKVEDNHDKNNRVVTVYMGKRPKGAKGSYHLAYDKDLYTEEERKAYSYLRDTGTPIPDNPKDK

[8] = THP-1 cell cytotoxicity, dose response, cytotoxicity control for non-replicating M. tuberculosis project (AID 489025); format: functional
[9] = target: T2, Short transient receptor potential channel 4; test: block of DAMGO-driven TRPC4 calcium entry – cell-based, HEK293 TRPC4/mu-opioid, Fluo-4 calcium, dose response (AID 434942); format: functional;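 also: potency of inhibitors blocking the TRPC4 calcium response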
[10] = Vero E6 cell cytotoxicity, dose response, cytotoxicity control for non-replicating M. tuberculosis project, secondary assay (AID 492998); format: functional, VeroE6; settings: Vero C1008
CAAX prenyl protease 2 [11] = target: T6, CAAX prenyl protease 2 (Saccharomyces cerevisiae S288c, UniProt Q03530); format: biochemical
T6 sequence (Q03530 whole entry): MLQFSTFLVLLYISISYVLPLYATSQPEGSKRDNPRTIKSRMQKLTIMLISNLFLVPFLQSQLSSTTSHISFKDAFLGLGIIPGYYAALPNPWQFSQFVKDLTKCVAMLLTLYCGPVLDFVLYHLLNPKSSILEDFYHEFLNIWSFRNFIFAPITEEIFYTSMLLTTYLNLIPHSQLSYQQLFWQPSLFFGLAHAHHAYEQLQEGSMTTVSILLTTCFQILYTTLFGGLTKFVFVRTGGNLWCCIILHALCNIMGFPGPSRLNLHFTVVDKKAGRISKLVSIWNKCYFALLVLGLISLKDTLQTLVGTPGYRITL

[12] = target: G-protein coupled receptor 55 (Homo sapiens, UniProt Q9Y2T6); test: selective activators of receptor GPR55 – imaging, U2OS cells, beta-arrestin-GFP redistribution, primary screen (AID 1961); format: functional
Sequence of G-protein coupled receptor 55 (Q9Y2T6 whole entry): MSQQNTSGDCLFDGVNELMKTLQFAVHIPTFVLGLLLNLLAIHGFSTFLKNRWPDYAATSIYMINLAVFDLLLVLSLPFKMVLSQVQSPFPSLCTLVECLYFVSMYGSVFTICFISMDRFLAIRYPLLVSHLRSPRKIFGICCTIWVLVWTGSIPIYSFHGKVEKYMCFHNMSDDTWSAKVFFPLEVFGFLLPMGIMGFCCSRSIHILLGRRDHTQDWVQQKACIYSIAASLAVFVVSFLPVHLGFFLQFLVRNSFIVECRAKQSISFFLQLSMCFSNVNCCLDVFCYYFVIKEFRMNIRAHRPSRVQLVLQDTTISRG

CAAX prenyl protease 2 [13] = target: T7, CAAX prenyl protease 2 (Homo sapiens, UniProt Q9Y256); test: inhibition of Ras-converting CAAX protease Rce1 – biochemical, yeast membranes, quenched-peptide fluorescence, cherry-pick, dose response (AID 588849)
T7 sequence (Q9Y256 whole entry): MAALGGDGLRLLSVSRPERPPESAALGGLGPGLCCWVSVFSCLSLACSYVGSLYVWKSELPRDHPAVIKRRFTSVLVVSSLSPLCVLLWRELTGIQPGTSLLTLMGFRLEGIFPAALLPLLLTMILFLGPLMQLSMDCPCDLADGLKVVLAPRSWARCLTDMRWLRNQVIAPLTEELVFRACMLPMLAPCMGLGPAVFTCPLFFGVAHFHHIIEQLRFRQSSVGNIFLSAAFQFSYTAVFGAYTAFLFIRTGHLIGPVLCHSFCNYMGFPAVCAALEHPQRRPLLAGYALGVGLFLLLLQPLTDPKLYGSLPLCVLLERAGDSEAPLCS

[14] = Trypanosoma cruzi growth suppression in host cells – NIH3T3 host cells, beta-gal luminescence, confirmation (AID 2044); format: functional, cell-based;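 also: intracellular parasites grown in NIH/3T3 mouse fibroblasts as host cells; luminescent beta-galactosidase reporter signal from transgenic T. cruzi replicating inside host cells; inhibitors lower the luminescence signal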
[15] = target: DNA dC->dU-editing enzyme APOBEC-3G (Homo sapiens, UniProt Q9HC16); test: Dose Response confirmation of small molecule APOBEC3G DNA Deaminase Inhibitors via a fluorescence-based single-stranded DNA deaminase assay. [Related pubchem assays (depositor defined):AID493012, AID493028]; format: functional
Sequence of DNA dC->dU-editing enzyme APOBEC-3G (Q9HC16 whole entry): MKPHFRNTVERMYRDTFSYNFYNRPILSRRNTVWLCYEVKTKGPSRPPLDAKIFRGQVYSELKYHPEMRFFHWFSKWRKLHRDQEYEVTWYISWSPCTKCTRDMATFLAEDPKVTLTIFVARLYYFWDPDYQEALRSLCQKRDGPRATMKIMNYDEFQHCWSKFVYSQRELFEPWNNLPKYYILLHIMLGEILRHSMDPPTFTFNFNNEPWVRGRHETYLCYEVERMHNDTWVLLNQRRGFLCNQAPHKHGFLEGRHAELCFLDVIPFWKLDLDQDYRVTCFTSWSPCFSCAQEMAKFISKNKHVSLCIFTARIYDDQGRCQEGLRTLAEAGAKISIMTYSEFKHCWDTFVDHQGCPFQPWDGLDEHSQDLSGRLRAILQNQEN

INS1 = test: INS-1E survival protection against cytokine death – cell-based, luminescence, retest, dose response (AID 449756); format: functional; settings: Rattus norvegicus;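 also: cell death triggered by IL-1 beta plus TNF-alpha plus IFN-gamma mixture; protective hits raise ATP signal compared with cytokine alone wells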
[16] = NIH3T3 cell viability loss – ATP luminescence, mouse fibroblasts, counter-screen, dose response (AID 2010); format: functional, cell-based;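 also: cells exposed to compound for about 90 hours before reading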
[17] = target: Eukaryotic translation initiation factor 4E (Mus musculus, UniProt P63073); test: blockers of eIF4G binding by eIF4E – biochemical, TR-FRET, dose response (AID 855); format: functional;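 also: potency for disrupting eIF4E binding to eIF4GI seen as loss of FRET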
Sequence of Eukaryotic translation initiation factor 4E (P63073 whole entry): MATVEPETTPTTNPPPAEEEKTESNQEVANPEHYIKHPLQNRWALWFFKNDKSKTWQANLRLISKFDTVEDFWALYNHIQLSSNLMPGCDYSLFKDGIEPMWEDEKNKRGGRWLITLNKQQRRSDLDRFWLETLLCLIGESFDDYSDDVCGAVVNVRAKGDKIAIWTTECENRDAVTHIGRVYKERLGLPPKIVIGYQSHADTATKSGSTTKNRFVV

With `CN1CCN(S(=O)(=O)c2ccc(NC(=O)Nc3cccc(Cl)c3)cc2)CC1` the CC50 [1] was > 40 µM (active) and the IC50 [2] was 13.2 µM (active).
For `COc1cc2ccccc2cc1C(=O)NCC(c1cccs1)N(C)C` (stereo not drawn), the EC50 [3] was 0.944 µM (active).
In the case of `CCOC(=O)C(=Cc1c[nH]c2ccc(S(=O)(=O)N(C)C)cc12)C(=O)OCC`, the IC50 [2] was 15.8 µM (active), the EC50 [4] was 45.3 µM (active) and the CC50 [5] was 13.4 µM (active).
In the case of `CNS(=O)(=O)c1cccc(C(=O)OCC(=O)c2ccc(S(=O)(=O)N3CCCCC3)cc2)c1`, the EC50 (Beta-galactosidase) was > 40 µM (inactive) and the IC50 [6] was 18.8 µM (active).
For `NC(=O)C1CCCN(CCc2ccccc2)C1` (stereo not drawn), the EC50 [3] was 0.06 µM (active).
For `CCN1CCN(c2ccc(S(=O)(=O)N3CCOCC3)cc2NC(=O)c2ccccc2SC)CC1`, the EC50 [3] was 0.421 µM (active).
In the case of `Cc1ccc(C(=O)Nc2nnc(C3=COCCO3)o2)cc1C`, the IC50 (cells) was 2.03 µM (active), the EC50 [7] was 5.17 µM (active) and the EC50 (Streptococcus) was 15.5 µM (active). For the same molecule, the EC50 (Streptokinase A) was > 150 µM (not active), the CC50 [8] was > 40 µM (active) and the EC50 [9] was 0.421 µM (active). The CC50 [10] was > 20 µM (active).
For `Cc1cccc2c1NC(=O)C2=Nc1ccc(Cl)cc1`, the EC50 (Beta-galactosidase) was > 40 µM (inactive) and the IC50 [6] was 27.9 µM (not active).
For `CCc1ccc(Nc2n[n+](-c3ccccc3)c(/C=C/c3ccccc3)s2)cc1`, the AC50 (CAAX prenyl protease 2 [11]) was 0.634 µM (active), the EC50 [12] was 1.59 µM (active) and the AC50 (CAAX prenyl protease 2 [13]) was 23.8 µM (active).
For `O=C(Nc1nc(-c2ccccn2)cs1)Nc1ccc(F)cc1F`, the EC50 [14] was 0.9 µM (active), the EC50 [7] was 1.16 µM (active) and the EC50 (Streptococcus) was 2.33 µM (active). The IC50 [15] was 65.9 µM (active), the EC50 (Beta-galactosidase) was > 40 µM (inactive) and the IC50 [6] was 18.8 µM (active). For the same molecule, the AC50 (INS1) was 3.4 µM (active) and the EC50 [16] was 8.78 µM (active).
In the case of `CC(/C=N\NC(=O)CN1CCN(S(=O)(=O)c2ccc(C)cc2)CC1)=C\c1ccccc1`, the AC50 (CAAX prenyl protease 2 [11]) was 4.3 µM (active), the IC50 [17] was > 64 µM (inactive) and the AC50 (CAAX prenyl protease 2 [13]) was 59.3 µM (active).
